Source: patent publication US10829796B2, “Bacteria identification and antimicrobial susceptibility test” (priority 2015, dated 2020)

System: bacteria in clinical bovine mastitis milk samples
Experiment: Combined bacteria identification and antimicrobial susceptibility test (colour of wells, MIC) on clinical bovine mastitis milk samples
Assay type: cell-based
Description: Clinical bovine mastitis milk samples were collected by a vet clinic in South Island, New Zealand. Samples were stored in the freezer for several months and shipped frozen to the testing facility. In this Example, the term “clinical” means that dairy cows had clinical symptoms of an udder infection e.g. cow behaved unusual, milk clots, swollen udder among other typical symptoms. Testing was executed in microwell plate comprising of 24 wells (3×8 wells).
In addition, 20 ul of clinical mastitis sample was added to each well with a laboratory pipette.
Abbreviations • 1. 80 ul GC+10 ul Tell: 80 ul Giolitti Cantoni base broth+10 ul Tellurite solution (1%); • 2. 80 ul TSB/Esc/Fer Cit: 80 ul Tryptic soy broth containing 0.25% Esculin and 0.125% Ammonium Ferric Citrate; • 3. 80 ul TSB/Esc/Fer Cit+10 ul Genta: 80 ul Tryptic soy broth containing 0.25% Esculin and 0.125% Ammonium Ferric Citrate+10 ul of Gentamycin solution 10 mg/ml; • 4. 80 ul McC/PR25: 80 ul MacConkey broth (single strength) containing 0.0125% phenol red; and • 5. 80 ul TSB/PR25: 80 ul Tryptic soy broth containing 0.0125% phenol red. Bacteria Identification
Columns A to C and rows 1 and 2 were used for bacteria identification. A1: coagulase positive Staph; A2: Staphylococci; B1: Strep group D; B2: Strep group D; C1: general enrichment media (gram+ and gram-bacteria); C2: coliform bacteria.
Column A3 to A8: serial dilution of benzyl penicillin as potassium. Column B3 to B8: serial dilution of ceftiofur as hydrochloride. Column C3 to C8: serial dilution of cloxacillin as sodium. Antibiotic concentrations are listed as free form ranging between 4 ug/ml to 0.05 ug/ml.
Minimum inhibitory substance concentration (MIC) is here defined as the concentration if a colour change occurs between two wells (one well remains red with drug concentration 1, the other one yellow with drug concentration 2, whereas drug concentration 1 is larger than drug concentration 2) then the MIC is the value of drug concentration 1.
Table 21 indicates the microwell plate configuration #1; Drugs: Benzylpenicillin as potassium; Cloxacillin as sodium; Ceftiofur as hydrochloride; Drug concentration in each well (A3 to C8) is based on 80 μl composition+10 μl drug solution+20 μl clinical mastitis milk sample and equivalent to listed drug concentration in μg/ml; 20 ul of clinical bovine mastitis milk sample was added to each well (A1 to C8).
In addition, each well received one drop of clinical sample from a transfer pipette which was on average about 35 mg. This was determined through weighing the well plate prior and after the addition of clinical mastitis samples. This weight was then divided by 24.
• 1. 80 ul GC+10 ul Tell: 80 ul Giolitti Cantoni base broth+10 ul Tellurite solution (1%); • 2. 80 ul TSB/Esc/Fer Cit: 80 ul Tryptic soy broth containing 0.25% Esculin and 0.125% Ammonium Ferric Citrate; • 3. 80 ul TSB/Esc/Fer Cit+10 ul Genta: 80 ul Tryptic soy broth containing 0.25% Esculin and 0.125% Ammonium Ferric Citrate+10 ul of Gentamycin solution 10 mg/ml; • 4. 80 ul McC/PR25: 80 ul MacConkey broth (single strength) containing 0.0125% phenol red; and • 5. 80 ul TSB/PR25: 80 ul Tryptic soy broth containing 0.0125% phenol red.
Columns A to C and rows 1 and 2 were used for bacteria identification. A1: coagulase positive Staph; A2: Staphylococci; B1: Strep Group D; B2: -; C1: general enrichment media (gram+ and gram-); C2: coliform bacteria.
Column A3 to A8: serial dilution of benzyl penicillin as potassium. Drug concentrations given as free form ranging between 4 ug/ml to 0.05 ug/ml. Column B3 to B8: serial dilution of ceftiofur as hydrochloride. Drug concentrations given as free form ranging between 4 ug/ml to 0.05 ug/ml. Column C3 to C8: serial dilution of cloxacillin as sodium. Drug concentrations given as free form ranging between 4 ug/ml to 0.05 ug/ml.

CO/N=C(\C(=O)N[C@@H]1C(=O)N2C(C(=O)O)=C(CSC(=O)c3ccco3)CS[C@H]12)c1csc(N)n1 [ceftiofur]
Colour of media in each well (ID 1, T = 22 h, 37° C., plate configuration #1, drug 0.05 μg/ml): yellow | Colour of media in each well (ID 1, T = 22 h, 37° C., plate configuration #1, drug 0.1 μg/ml): yellow | Colour of media in each well (ID 1, T = 22 h, 37° C., plate configuration #1, drug 0.5 μg/ml): red | Colour of media in each well (ID 1, T = 22 h, 37° C., plate configuration #1, drug 1 μg/ml): red | Colour of media in each well (ID 1, T = 22 h, 37° C., plate configuration #1, drug 2 μg/ml): red | Colour of media in each well (ID 1, T = 22 h, 37° C., plate configuration #1, drug 4 μg/ml): red | Colour of media in each well (ID 2, T = 48 h, 37° C., plate configuration #1, drug 0.05 μg/ml): yellow | Colour of media in each well (ID 2, T = 48 h, 37° C., plate configuration #1, drug 0.1 μg/ml): yellow | Colour of media in each well (ID 2, T = 48 h, 37° C., plate configuration #1, drug 0.5 μg/ml): yellow | Colour of media in each well (ID 2, T = 48 h, 37° C., plate configuration #1, drug 1 μg/ml): red | Colour of media in each well (ID 2, T = 48 h, 37° C., plate configuration #1, drug 2 μg/ml): red | Colour of media in each well (ID 2, T = 48 h, 37° C., plate configuration #1, drug 4 μg/ml): red | Colour of media in each well (ID 3, T = 22 h, 37° C., plate configuration #1, drug 0.05 μg/ml): red | Colour of media in each well (ID 3, T = 22 h, 37° C., plate configuration #1, drug 0.1 μg/ml): yellow | Colour of media in each well (ID 3, T = 22 h, 37° C., plate configuration #1, drug 0.5 μg/ml): yellow | Colour of media in each well (ID 3, T = 22 h, 37° C., plate configuration #1, drug 1 μg/ml): red | Colour of media in each well (ID 3, T = 22 h, 37° C., plate configuration #1, drug 2 μg/ml): red | Colour of media in each well (ID 3, T = 22 h, 37° C., plate configuration #1, drug 4 μg/ml): red | Colour of media in each well (ID 3, T = 23 h, 37° C., Table 34, drug 0.05 μg/ml): red | Colour of media in each well (ID 3, T = 23 h, 37° C., Table 34, drug 0.1 μg/ml): yellow | Colour of media in each well (ID 3, T = 23 h, 37° C., Table 34, drug 0.5 μg/ml): yellow | Colour of media in each well (ID 3, T = 23 h, 37° C., Table 34, drug 1 μg/ml): red | Colour of media in each well (ID 3, T = 23 h, 37° C., Table 34, drug 2 μg/ml): red | Colour of media in each well (ID 3, T = 23 h, 37° C., Table 34, drug 4 μg/ml): red | Colour of media in each well (ID 3, T~7 h, 37° C., Table 34, drug 0.05 μg/ml): red | Colour of media in each well (ID 3, T~7 h, 37° C., Table 34, drug 0.1 μg/ml): red | Colour of media in each well (ID 3, T~7 h, 37° C., Table 34, drug 0.5 μg/ml): red | Colour of media in each well (ID 3, T~7 h, 37° C., Table 34, drug 1 μg/ml): red | Colour of media in each well (ID 3, T~7 h, 37° C., Table 34, drug 2 μg/ml): red | Colour of media in each well (ID 3, T~7 h, 37° C., Table 34, drug 4 μg/ml): red | Colour of media in each well (ID 3, T~11 h, 37° C., Table 34, drug 0.05 μg/ml): red | Colour of media in each well (ID 3, T~11 h, 37° C., Table 34, drug 0.1 μg/ml): red | Colour of media in each well (ID 3, T~11 h, 37° C., Table 34, drug 0.5 μg/ml): red | Colour of media in each well (ID 3, T~11 h, 37° C., Table 34, drug 1 μg/ml): red | Colour of media in each well (ID 3, T~11 h, 37° C., Table 34, drug 2 μg/ml): red | Colour of media in each well (ID 3, T~11 h, 37° C., Table 34, drug 4 μg/ml): red | Colour of media in each well (ID 4, T = 22 h, 37° C., plate configuration #1, drug 0.05 μg/ml): yellow | Colour of media in each well (ID 4, T = 22 h, 37° C., plate configuration #1, drug 0.1 μg/ml): yellow | Colour of media in each well (ID 4, T = 22 h, 37° C., plate configuration #1, drug 0.5 μg/ml): orange | Colour of media in each well (ID 4, T = 22 h, 37° C., plate configuration #1, drug 1 μg/ml): red | Colour of media in each well (ID 4, T = 22 h, 37° C., plate configuration #1, drug 2 μg/ml): red | Colour of media in each well (ID 4, T = 22 h, 37° C., plate configuration #1, drug 4 μg/ml): red | Colour of media in each well (ID 5, T = 23 h, 37° C., plate configuration #2, drug 0.05 μg/ml): yellow | Colour of media in each well (ID 5, T = 23 h, 37° C., plate configuration #2, drug 0.1 μg/ml): yellow | Colour of media in each well (ID 5, T = 23 h, 37° C., plate configuration #2, drug 0.5 μg/ml): red | Colour of media in each well (ID 5, T = 23 h, 37° C., plate configuration #2, drug 1 μg/ml): red | Colour of media in each well (ID 5, T = 23 h, 37° C., plate configuration #2, drug 2 μg/ml): red | Colour of media in each well (ID 5, T = 23 h, 37° C., plate configuration #2, drug 4 μg/ml): red | Colour of media in each well (ID 5 to 8, T = 0 h (prior incubation, reference), plate configuration #2, drug 0.05 μg/ml): red | Colour of media in each well (ID 5 to 8, T = 0 h (prior incubation, reference), plate configuration #2, drug 0.1 μg/ml): red | Colour of media in each well (ID 5 to 8, T = 0 h (prior incubation, reference), plate configuration #2, drug 0.5 μg/ml): red | Colour of media in each well (ID 5 to 8, T = 0 h (prior incubation, reference), plate configuration #2, drug 1 μg/ml): red
